# The source made the active and inactive calls.
# How the values were obtained:
# [1] = biological target: T1, Ubiquitin-conjugating enzyme E2 N (Homo sapiens, UniProt P61088); type: functional
# T1 sequence (P61088 whole entry): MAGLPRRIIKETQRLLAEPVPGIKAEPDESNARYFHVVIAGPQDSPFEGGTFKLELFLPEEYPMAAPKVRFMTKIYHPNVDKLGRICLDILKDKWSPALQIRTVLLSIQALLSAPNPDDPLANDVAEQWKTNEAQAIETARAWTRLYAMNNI
# Bcl-2-related protein A1 = biological target: T2, Bcl-2-related protein A1 (Mus musculus, UniProt Q07440); type: functional;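 also: confirmatory dose–response counterscreen on Bfl-1, used to check hits from a UBC13 polyubiquitin inhibitor campaign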
# T2 sequence (Q07440 whole entry): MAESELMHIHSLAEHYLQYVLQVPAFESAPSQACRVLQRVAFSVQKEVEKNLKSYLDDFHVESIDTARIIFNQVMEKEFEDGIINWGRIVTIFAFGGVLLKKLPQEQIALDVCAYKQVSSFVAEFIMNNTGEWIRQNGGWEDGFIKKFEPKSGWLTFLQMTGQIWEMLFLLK
# [2] = biological target: T1, Ubiquitin-conjugating enzyme E2 N; type: functional; remark: listed apart in the source
# [3] = HepG2 cell cytotoxicity, dose response, cytotoxicity control for Shn3 inhibitor project, CellTiter-Glo, cherry-picked (AID 624134); type: functional, cell-based
# [4] = cytotoxicity in MIN6 insulinoma cells, dose response, cytotoxicity control, cell-based, mouse insulinoma (AID 2122); type: functional;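 also: confirmatory high-throughput counterscreen run to flag cytotoxic compounds; mouse MIN-6 beta cells carrying an insulin promoter eGFP reporter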
# [5] = Shn3 3'UTR reporter inhibitors, dose response, cell-based, Clone20 osteoblasts, firefly luciferase, cherry-picked (AID 624132); type: functional;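 also: firefly luciferase luminescence from reporter carrying the Shn3 3'UTR in osteoblasts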
# [6] = insulin promoter down-regulators in MIN6 cells, imaging, high-content screening, mouse beta cells (AID 1628); type: functional
# [7] = control 3'UTR Renilla luciferase suppression, dose response, counter-screen for Shn3 inhibitor project, cell-based, Clone20-Shn3RL, cherry-picked (AID 624133); type: functional
# [8] = biological target: T3, Microphthalmia-associated transcription factor (Homo sapiens, UniProt O75030); test: TRPM1 promoter luciferase signal decrease, dose response, MITF inhibitor project, cell-based, SK-MEL-5, cherry-picked, set 3 (AID 493073); type: functional
# T3 sequence (O75030 whole entry): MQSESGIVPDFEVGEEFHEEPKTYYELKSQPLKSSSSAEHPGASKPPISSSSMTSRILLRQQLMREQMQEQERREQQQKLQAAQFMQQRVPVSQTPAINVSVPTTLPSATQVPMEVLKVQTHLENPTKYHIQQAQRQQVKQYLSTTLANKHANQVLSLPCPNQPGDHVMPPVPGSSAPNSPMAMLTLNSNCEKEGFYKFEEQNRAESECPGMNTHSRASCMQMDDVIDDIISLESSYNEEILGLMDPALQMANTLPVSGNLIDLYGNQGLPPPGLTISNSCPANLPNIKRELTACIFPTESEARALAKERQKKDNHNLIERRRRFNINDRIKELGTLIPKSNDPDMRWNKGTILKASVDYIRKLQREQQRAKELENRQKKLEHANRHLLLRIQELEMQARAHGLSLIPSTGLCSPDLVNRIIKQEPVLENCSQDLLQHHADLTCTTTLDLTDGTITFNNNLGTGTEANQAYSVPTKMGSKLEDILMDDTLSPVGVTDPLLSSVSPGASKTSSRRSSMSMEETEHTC
# [9] = inhibitors of intracellular T. cruzi replication, confirmation, NIH3T3 host cells, beta-gal luminescence (AID 2044); type: functional, cell-based;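 also: intracellular parasites grown in NIH/3T3 mouse fibroblasts as host cells; luminescent beta-galactosidase reporter signal from transgenic T. cruzi replicating inside host cells; inhibitors lower the luminescence signal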
# [10] = cytotoxicity toward NIH3T3 fibroblasts, dose response, counter-screen, cell-based, ATP luminescence, mouse fibroblasts (AID 2010); type: functional;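 also: cells exposed to compound for about 90 hours before reading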
# Troponin, cardiac muscle = Troponin, cardiac muscle (Homo sapiens, UniProt P19429+P45379+P63316); test: Fluorescence-based biochemical high throughput dose response assay for activators of the calcium sensitivity of cardiac Regulated Thin Filaments (RTF). [Related pubchem assays (depositor defined):AID493008, AID493018, AID504382, AID504383]; type: protein-complex assay
# Cytochrome P450 2C19 = Cytochrome P450 2C19 (Homo sapiens, UniProt P33261); test: Cytochrome panel assay with activity outcomes. Panel member name: p450-cyp2c19 Compounds with AC50 equal or less than 10 uM are considered active; type: functional; settings: read-out: AC50
# [11] = biological target: T4, Zinc finger protein mex-5 (Caenorhabditis elegans, UniProt Q9XUB2); test: MEX-5/TCR-2 RNA interaction inhibitors, dose response, biochemical, C. elegans, fluorescence polarization (AID 1960)
# T4 sequence (Q9XUB2 whole entry): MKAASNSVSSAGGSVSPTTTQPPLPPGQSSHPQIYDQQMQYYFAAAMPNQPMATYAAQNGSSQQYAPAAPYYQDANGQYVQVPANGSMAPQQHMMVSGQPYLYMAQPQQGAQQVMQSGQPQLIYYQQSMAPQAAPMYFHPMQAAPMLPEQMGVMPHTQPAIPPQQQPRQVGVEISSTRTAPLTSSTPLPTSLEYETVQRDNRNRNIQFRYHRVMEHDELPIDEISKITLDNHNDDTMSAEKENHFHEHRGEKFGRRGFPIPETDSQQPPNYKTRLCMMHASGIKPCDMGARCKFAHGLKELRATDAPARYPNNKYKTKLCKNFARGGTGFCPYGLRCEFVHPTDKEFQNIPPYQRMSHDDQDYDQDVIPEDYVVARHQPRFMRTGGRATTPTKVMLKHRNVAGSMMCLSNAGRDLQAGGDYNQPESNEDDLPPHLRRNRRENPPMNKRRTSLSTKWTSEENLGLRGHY
# [12] = biological target: T5, Corticotropin-releasing factor receptor 2/Corticotropin-releasing factor-binding protein (Homo sapiens, UniProt P24387+Q13324); test: activators of CRF receptor 2 with binding protein – uHTS hits, confirmation (AID 602473); type: functional; settings: read-out: EC50_Mean
# T5 sequence (Q13324 whole entry): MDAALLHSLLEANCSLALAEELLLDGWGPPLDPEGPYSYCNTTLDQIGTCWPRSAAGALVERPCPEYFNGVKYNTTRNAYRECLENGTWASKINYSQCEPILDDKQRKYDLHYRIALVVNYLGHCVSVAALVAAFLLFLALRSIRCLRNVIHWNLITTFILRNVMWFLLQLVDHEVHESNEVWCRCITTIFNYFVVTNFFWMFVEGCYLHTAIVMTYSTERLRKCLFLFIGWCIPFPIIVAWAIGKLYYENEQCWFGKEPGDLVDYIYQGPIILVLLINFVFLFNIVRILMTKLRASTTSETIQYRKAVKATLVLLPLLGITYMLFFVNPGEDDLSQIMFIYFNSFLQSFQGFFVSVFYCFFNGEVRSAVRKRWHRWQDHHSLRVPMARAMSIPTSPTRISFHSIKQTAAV
# T5 sequence (P24387 whole entry): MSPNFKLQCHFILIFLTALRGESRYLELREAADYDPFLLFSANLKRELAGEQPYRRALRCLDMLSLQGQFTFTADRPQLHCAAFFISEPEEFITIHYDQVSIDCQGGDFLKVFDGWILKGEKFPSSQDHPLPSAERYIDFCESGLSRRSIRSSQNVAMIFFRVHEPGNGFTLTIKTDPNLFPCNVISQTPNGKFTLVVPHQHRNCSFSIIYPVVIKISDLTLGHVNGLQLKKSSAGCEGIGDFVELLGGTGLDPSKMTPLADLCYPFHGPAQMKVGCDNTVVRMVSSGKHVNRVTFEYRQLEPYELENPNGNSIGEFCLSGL
# Cytochrome P450 2C9 = Cytochrome P450 2C9 (Homo sapiens, UniProt P11712)
# Cytochrome P450 1A2 = biological target: T6, Cytochrome P450 1A2 (Homo sapiens, UniProt P05177);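 also: PubChem cytochrome P450 panel assay, CYP1A2 panel member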
# T6 sequence (P05177 whole entry): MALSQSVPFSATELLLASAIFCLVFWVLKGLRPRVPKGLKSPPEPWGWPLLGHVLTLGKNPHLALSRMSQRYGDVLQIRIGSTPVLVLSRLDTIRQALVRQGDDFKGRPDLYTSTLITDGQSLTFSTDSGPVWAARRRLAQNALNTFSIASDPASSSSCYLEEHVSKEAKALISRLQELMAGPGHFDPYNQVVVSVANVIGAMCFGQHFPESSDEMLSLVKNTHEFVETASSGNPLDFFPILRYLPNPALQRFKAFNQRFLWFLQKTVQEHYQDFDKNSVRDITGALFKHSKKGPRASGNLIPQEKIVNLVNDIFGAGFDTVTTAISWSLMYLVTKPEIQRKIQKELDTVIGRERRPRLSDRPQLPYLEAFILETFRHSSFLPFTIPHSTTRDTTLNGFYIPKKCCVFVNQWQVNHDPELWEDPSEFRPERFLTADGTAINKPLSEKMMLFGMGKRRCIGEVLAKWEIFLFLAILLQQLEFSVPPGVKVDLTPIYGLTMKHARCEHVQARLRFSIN
# [13] = biological target: T7, RNA-binding protein pos-1 (Caenorhabditis elegans, UniProt G5EF15); test: inhibitors of POS-1/mex-3 RNA binding, dose response, biochemical, fluorescence polarization (AID 1964);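 also: purified POS-1 fused to maltose binding protein made in E. coli; potency of compounds blocking POS-1 binding to fluorescent RNA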
# T7 sequence (G5EF15 whole entry): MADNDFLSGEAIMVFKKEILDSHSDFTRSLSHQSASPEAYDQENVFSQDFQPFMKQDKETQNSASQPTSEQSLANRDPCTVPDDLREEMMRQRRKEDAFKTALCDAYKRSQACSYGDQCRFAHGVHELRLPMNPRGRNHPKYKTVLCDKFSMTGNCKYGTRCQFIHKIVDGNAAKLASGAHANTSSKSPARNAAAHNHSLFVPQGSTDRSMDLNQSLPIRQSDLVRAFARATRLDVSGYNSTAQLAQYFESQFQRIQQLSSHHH
# Vero [14] = test: cells; type: functional; settings: Chlorocebus sabaeus
# Vero [15] = test: cells; type: functional, cell-based; settings: Chlorocebus sabaeus
# [16] = biological target: DNA dC->dU-editing enzyme APOBEC-3A (Homo sapiens, UniProt P31941); test: Dose Response confirmation of small molecule APOBEC3A DNA Deaminase Inhibitors via a fluorescence-based single-stranded DNA deaminase assay. [Related pubchem assays (depositor defined):AID493011, AID493024]; type: functional
# [17] = biological target: T8, Carboxy-terminal domain RNA polymerase II polypeptide A small phosphatase 1 (Homo sapiens, UniProt Q9GZU7); test: inhibitors of CTDSP1, concentration-response testing, biochemical assay, absorbance-based, actives from ultra-high-throughput screening (AID 540297); type: functional
# T8 sequence (Q9GZU7 whole entry): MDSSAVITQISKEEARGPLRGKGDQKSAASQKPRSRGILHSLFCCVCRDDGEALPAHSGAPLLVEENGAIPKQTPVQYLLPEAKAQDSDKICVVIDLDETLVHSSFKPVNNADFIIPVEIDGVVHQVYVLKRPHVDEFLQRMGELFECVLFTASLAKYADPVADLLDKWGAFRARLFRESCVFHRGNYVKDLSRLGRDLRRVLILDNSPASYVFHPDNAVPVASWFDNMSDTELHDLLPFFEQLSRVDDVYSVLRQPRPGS
# Caspase-6 = biological target: T9, Caspase-6 (Homo sapiens, UniProt P55212); test: human caspase-6 inhibitors, dose response, biochemical, VEID-R110 fluorescence, cherry-pick (AID 720632)
# T9 sequence (P55212 whole entry): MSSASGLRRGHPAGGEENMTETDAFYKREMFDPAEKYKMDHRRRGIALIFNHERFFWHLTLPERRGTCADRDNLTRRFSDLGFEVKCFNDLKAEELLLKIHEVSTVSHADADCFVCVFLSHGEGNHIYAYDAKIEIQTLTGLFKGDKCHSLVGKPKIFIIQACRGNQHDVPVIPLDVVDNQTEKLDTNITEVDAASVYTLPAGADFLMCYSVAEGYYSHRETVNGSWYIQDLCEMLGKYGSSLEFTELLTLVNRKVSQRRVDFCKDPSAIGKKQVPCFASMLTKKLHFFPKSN
# [18] = biological target: DNA dC->dU-editing enzyme APOBEC-3G (Homo sapiens, UniProt Q9HC16); type: functional;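 also: Dose-response counterscreen measuring inhibition of APOBEC3G DNA deaminase activity, run while confirming APOBEC3A inhibitors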
# Chain of DNA dC->dU-editing enzyme APOBEC-3G (Q9HC16 whole entry): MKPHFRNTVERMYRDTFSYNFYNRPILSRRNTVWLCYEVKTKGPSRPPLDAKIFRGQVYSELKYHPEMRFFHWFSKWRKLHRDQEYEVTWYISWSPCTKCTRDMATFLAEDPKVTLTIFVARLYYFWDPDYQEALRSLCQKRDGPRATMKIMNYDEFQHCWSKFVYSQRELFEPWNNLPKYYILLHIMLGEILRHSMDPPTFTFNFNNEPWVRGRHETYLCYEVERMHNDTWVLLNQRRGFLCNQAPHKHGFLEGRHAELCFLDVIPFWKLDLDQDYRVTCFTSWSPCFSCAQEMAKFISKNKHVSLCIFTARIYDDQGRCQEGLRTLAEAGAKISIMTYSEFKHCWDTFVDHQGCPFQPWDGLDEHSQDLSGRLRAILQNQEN
# Chain of Cytochrome P450 2C19 (P33261 whole entry): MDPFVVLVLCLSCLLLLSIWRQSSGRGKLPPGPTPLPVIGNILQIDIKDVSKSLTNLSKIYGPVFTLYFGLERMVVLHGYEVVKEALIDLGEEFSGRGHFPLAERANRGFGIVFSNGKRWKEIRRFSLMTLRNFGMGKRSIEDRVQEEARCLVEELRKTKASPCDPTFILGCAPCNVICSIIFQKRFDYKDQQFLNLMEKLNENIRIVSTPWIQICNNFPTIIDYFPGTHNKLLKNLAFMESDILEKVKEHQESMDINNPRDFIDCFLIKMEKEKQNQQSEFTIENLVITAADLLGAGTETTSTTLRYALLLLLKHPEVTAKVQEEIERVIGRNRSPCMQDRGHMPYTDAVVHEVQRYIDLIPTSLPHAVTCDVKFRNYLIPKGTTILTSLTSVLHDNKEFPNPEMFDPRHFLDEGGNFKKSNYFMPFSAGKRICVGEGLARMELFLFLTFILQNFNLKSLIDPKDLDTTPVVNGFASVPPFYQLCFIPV
# Chain of DNA dC->dU-editing enzyme APOBEC-3A (P31941 whole entry, the tested form may be a part): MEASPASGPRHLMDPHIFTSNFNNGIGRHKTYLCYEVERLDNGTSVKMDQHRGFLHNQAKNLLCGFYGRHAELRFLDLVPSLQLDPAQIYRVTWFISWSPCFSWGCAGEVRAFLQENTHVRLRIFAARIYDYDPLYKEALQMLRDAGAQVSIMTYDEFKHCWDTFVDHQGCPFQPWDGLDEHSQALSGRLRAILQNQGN
# Chain of Cytochrome P450 2C9 (P11712 whole entry): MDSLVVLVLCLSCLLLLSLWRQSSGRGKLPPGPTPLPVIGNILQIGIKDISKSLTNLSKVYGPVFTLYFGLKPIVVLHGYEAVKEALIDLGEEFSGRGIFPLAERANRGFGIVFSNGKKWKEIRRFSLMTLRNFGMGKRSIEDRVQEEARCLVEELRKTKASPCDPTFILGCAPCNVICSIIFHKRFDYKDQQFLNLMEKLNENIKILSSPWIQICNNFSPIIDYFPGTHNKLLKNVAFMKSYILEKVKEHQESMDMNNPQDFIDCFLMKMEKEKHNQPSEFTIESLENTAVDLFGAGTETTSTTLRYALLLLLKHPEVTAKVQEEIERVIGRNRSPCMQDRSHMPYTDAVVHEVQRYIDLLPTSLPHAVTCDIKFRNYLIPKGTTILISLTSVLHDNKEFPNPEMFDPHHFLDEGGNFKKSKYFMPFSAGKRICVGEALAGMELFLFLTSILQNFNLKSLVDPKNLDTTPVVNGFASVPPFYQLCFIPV
structure (smiles),measurement,setting,value
CC1(C)Cc2c(sc(NC(=O)C(=O)NCCCN3CCOCC3)c2C(N)=O)CO1,IC50,[1],2.14 µM (active)
same,IC50,Bcl-2-related protein A1,> 20 µM (inactive)
same,IC50,[2],7.92 µM (active)
Cc1ccc(NC(=O)CN(C)CC(=O)Nc2cccc(F)c2)cc1[N+](=O)[O-],AC50,[3],> 70 µM (inactive)
same,IC50,[4],0.487 µM (active)
same,AC50,[5],0.57 µM (active)
same,IC50,[6],0.765 µM (active)
same,AC50,[7],10.1 µM (active)
COc1ccc(C(=O)C(CN2CCOCC2)c2ccccc2)cc1 (centres undefined),AC50,[3],> 70 µM (inactive)
same,IC50,[4],4.42 µM (active)
same,AC50,[5],5.59 µM (active)
same,IC50,[6],4.99 µM (active)
same,AC50,[8],7.29 µM (active)
same,AC50,[7],11.2 µM (active)
CC(C)Cn1cnc2c(c(-c3ccccc3)c(-c3ccccc3)n2Cc2ccco2)c1=N,EC50,[9],0.879 µM (active)
same,EC50,[10],8.39 µM (active)
same,IC50,[4],2.88 µM (active)
same,IC50,[6],1.69 µM (active)
O=C(/C=C/c1cn(CC(O)CN2CCCCC2)c2ccccc12)c1cccs1 (centres undefined),EC50,"Troponin, cardiac muscle",17.9 µM (inactive)
COc1ccc(C(=O)Nc2cc(C(C)=O)c(/C=C/N(C)C)oc2=O)cc1,AC50,Cytochrome P450 2C19,10 µM (inconclusive)
same,EC50,[11],54.8 µM (active)
same,EC50,[12],6.69 µM (active)
same,AC50,Cytochrome P450 2C9,22.4 µM (inconclusive)
same,EC50,"Troponin, cardiac muscle",10.5 µM (inactive)
same,AC50,Cytochrome P450 1A2,15.8 µM (inconclusive)
same,EC50,[13],54.1 µM (active)
O=C1c2cccc3cccc(c23)C(=O)N1CCN1CCN(CC(O)COCc2ccc(Cl)cc2)CC1 (centres undefined),IC50,[1],2.31 µM (active)
same,IC50,Bcl-2-related protein A1,> 20 µM (inactive)
same,IC50,[2],2.89 µM (active)
CCN(Cc1ccccc1)S(=O)(=O)c1ccc(C(=O)N(CCCN(C)C)c2nc3cc4c(cc3s2)OCCO4)cc1,IC50,[1],2.93 µM (active)
same,IC50,Bcl-2-related protein A1,> 20 µM (inactive)
same,IC50,[2],2.81 µM (active)
CCn1c(=O)c2nc(Cl)[nH]c2n(CC)c1=O,CC50,Vero [14],> 25 µM (active)
same,IC50,Vero [15],17 µM (active)
O=C1C2C(C(=O)N1/N=C/c1cc([N+](=O)[O-])c(O)cc1O)C1C=CC2C12CC2 (centres undefined),IC50,[16],11.3 µM (active)
same,IC50,[17],4.9 µM (active)
same,AC50,Caspase-6,3.41 µM (active)
same,IC50,[18],40.2 µM (active)
O=C(CO/N=C/c1ccccc1OC(F)F)NCc1cccs1,EC50,"Troponin, cardiac muscle",> 71.5 µM (inactive)
